Test results as given in patent US7932384B2, “Reverse-turn mimetics and method relating thereto” (Choongwae Pharma Corporation, priority 2001, dated 2011).

Columns and labels:
cultured tumor cells [1] = test: FACS analysis of cells in G0, cultured tumor cells; assay type: cell-based; details: 5 μM
survivin promoter = test: Survivin luciferase reporter in SW480 cells; assay type: cell-based; details: SW480 cells, various concentrations
[2] = molecular target: β-catenin/CBP interaction (Homo sapiens, UniProt Q92793); details: Emami et al., Cancer Cell, in press; cited from earlier work
surviving protein [3] = test: Survivin immunofluorescence microscopy in SW480 cells; assay type: cell-based
cultured tumor cells [4] = test: Cell death of cultured tumor cells; assay type: cell-based; details: 5.0 μM
surviving promoter = test: ChIP assay on SW480 cells (survivin promoter occupancy); assay type: cell-based; details: SW480, 25 μM, 18 hours
[5] = test system: PC-12 cells overexpressing PS-1/L286V; test: Neurite outgrowth and differentiation of PC-12 PS-1/L286V cells; assay type: cell-based, Rat; details: PS-1/L286V mutant PC-12 cells, 10 μM plus NGF
Method: Cell Differentiation. Cell culture dishes were pre-coated overnight with 0.25 mg/ml collagen (Cohesion, CA), 10 μg/ml Poly-L-Lysine (Sigma-Aldrich, St. Louis, Mo.) and 12 μg/ml Polyethyleneimine (ICN, La Mesa, Calif.). Cells were cultured on coated dishes at 15,000 cells/cm^2, and differentiated into a neuron-like phenotype by incubation in medium with reduced serum (1% fetal bovine serum), containing 50 ng/ml nerve growth factor (NGF) (Sigma-Aldrich) for 10 days. NGF-containing medium was changed every 2-3 days.
(§1) Differentiated PC-12/L286V cells were treated with increasing concentrations of this compound for 4 hours. Transfection was then initiated after this treatment period.
Quantitation of Neurite Outgrowth. Cell counts were taken from six randomly chosen microscopic fields (10×). […] The number of cells with such outgrowths was then expressed as a percentage of the total number of cells. Values obtained were from duplicates of three independent experiments.

SW480 cells [6] = test: Flow cytometric analysis (FACS) of cell cycle, SW480; assay type: cell-based; details: SW480, 25 μM, 24 hours
Method: For FACS analysis, approx. 5×10^6 cells from Compound D-treated or vehicle-treated were fixed with 70% chilled ethanol and stored at −20° C. for at least 30 minutes. The cells were washed once with 1×PBS and incubated with propidium iodine (PI) solution (85 μg/ml propidium iodine, 0.1% Nonidet P-40, 10 mg/ml RNAse) for 30 minutes at room temperature. 10,000 stained cells for each sample were acquired using Beckman Coulter EPICS XL-MCL Flow Cytometry and the percentage of cells in different phase of the cell cycle was determined by Expo32 ADC software (Coulter Corporation, Miami, Fla., 33196).
It has been shown that inhibition of the expression of the cyclin D1 gene causes arrest at the G1/S-phase of the cell cycle (Shintani et al., “Infrequent alternations of RB pathway (Rb-p16INK4A-cyclin D1) in adenoid cystic carcinoma of salivary glands,” Anticancer Res. 20:2169-75 (2000)). […] The cells were subsequently stained with propidium iodide (PI) and analyzed for DNA content by FACS cytofluorometry.

survivin = test: Real time RT-PCR gene expression, Survivin; assay type: cell-based; details: 25 μM, 24 hours; <0.5 significant decrease, >1.5 significant increase
Method: (§2) Real time reverse transcription-PCR analysis was performed according to the protocol provided with the SYBR Green PCR Master Mix Kit (Perkin Elmer Biosystems, Shelton, ST). […] The primers used for the RT-PCR reactions were [NT] and [NT].

[7] = test system: caspase-3/7 in HCT116 cells; test: Caspase-3/7 activity assay, HCT116; assay type: cell-based; details: HCT116, 25 μM, 24 hours, compared to CCD18Co cells
Method: SW480, HCT116, and CCD18Co cells were plated at 10^5 cells per well (96-well plates) for 24 hours prior to treatment. […] 24 hours post treatment, cells were lysed and caspase activity was measured using a caspase-3/7 activity kit (Apo-One Homogeneous caspase-3/7 assay, #G77905, Promega). Relative fluorescence units (RFU) were obtained by subtracting the unit values of the blank (control, without cells) from the experimental measured values.
Caspases are cysteine proteases that are generally activated in a given population of cells triggered by apoptotic stimuli.

HLAC = test: Real time RT-PCR gene expression, HLAC; assay type: cell-based; details: 25 μM, 24 hours; <0.5 significant decrease, >1.5 significant increase
Method: as §2

SW480 cells [8] = test: Soft agar colony formation assay; assay type: cell-based; details: SW480, 0.25-5 μM
Method: The soft agar colony formation assay was conducted with SW480 cells by some modification of the procedure previously described (Moody et al., “A vasoactive intestinal peptide antagonist inhibits non-small cell lung cancer growth,” Proc. Natl. Acad. Sci. USA. 90:4345-49 (1993)).
Each well (35 mm) of a 6-well plate (Nalge Nunc International, Roskide, Denmark) was coated with 1 ml of 0.8% bottom agar in DMEM medium containing 10% fetal bovine serum. After it was solidified, 1 ml of DMEM medium containing 0.4% top agar, 10% fetal bovine serum, compound doubly concentrated, and 5,000 single viable cells was added to each well. The cultures were incubated at 37° C. in humidified 5% CO2 incubator. Colonies in soft agar were monitored daily and photographed after incubation for 8 days. Colonies>60 μm in diameter were counted.

surviving protein [9] = test: Western blot analysis of survivin protein; assay type: cell-based; details: 10 μM or 25 μM
[10] = test system: TCF/β-catenin reporter gene transcription; test: TOPFLASH luciferase assay in differentiated PC-12 PS-1/L286V cells; assay type: cell-based, Rat; details: PS-1/L286V mutant PC-12 cells, 10 μM plus NGF
Method: as §1
Transfection. PC-12 cells were cultured and differentiated on 60-mm dishes. At the end of the 10-day differentiation period, cells were transfected with 2 μg reporter constructs, TOPFLASH and FOPFLASH, per 60-mm dish. Transfections were performed using Superfect (Qiagen) according to manufacturer's instructions.
Luciferase Assays. Cells were lysed, 6 hours after transfections, in 100 μl of Cell Culture Lysis Reagent (Promega, Madison, Wis.), and scraped into microcentrifuge tubes. Tubes were then centrifuged briefly (about 10 seconds) at 12000 rpm to pellet cell debris. Luciferase activity was measured on 20 μl of cell lysate and 100 μl substrate from the Luciferase Assay System (Promega). Luciferase activity was measure using Packard LumiCount. (Hewlett Packard). Quantitation of luciferase was performed in triplicates, and repeated in at least three independent experiments.

caspase 3 = test: Caspase 3 activity in cultured tumor cells; assay type: cell-based; details: 2.5 μM or 5.0 μM
GADPH = test: Real time RT-PCR gene expression, GADPH; assay type: cell-based; details: 25 μM, 24 hours; <0.5 significant decrease, >1.5 significant increase
Method: as §2

[11] = molecular target: β-catenin/p300 interaction (Homo sapiens, UniProt Q09472); details: Emami et al., Cancer Cell, in press; cited from earlier work
β-catenin/p300 interaction, sequence (Q09472 whole entry): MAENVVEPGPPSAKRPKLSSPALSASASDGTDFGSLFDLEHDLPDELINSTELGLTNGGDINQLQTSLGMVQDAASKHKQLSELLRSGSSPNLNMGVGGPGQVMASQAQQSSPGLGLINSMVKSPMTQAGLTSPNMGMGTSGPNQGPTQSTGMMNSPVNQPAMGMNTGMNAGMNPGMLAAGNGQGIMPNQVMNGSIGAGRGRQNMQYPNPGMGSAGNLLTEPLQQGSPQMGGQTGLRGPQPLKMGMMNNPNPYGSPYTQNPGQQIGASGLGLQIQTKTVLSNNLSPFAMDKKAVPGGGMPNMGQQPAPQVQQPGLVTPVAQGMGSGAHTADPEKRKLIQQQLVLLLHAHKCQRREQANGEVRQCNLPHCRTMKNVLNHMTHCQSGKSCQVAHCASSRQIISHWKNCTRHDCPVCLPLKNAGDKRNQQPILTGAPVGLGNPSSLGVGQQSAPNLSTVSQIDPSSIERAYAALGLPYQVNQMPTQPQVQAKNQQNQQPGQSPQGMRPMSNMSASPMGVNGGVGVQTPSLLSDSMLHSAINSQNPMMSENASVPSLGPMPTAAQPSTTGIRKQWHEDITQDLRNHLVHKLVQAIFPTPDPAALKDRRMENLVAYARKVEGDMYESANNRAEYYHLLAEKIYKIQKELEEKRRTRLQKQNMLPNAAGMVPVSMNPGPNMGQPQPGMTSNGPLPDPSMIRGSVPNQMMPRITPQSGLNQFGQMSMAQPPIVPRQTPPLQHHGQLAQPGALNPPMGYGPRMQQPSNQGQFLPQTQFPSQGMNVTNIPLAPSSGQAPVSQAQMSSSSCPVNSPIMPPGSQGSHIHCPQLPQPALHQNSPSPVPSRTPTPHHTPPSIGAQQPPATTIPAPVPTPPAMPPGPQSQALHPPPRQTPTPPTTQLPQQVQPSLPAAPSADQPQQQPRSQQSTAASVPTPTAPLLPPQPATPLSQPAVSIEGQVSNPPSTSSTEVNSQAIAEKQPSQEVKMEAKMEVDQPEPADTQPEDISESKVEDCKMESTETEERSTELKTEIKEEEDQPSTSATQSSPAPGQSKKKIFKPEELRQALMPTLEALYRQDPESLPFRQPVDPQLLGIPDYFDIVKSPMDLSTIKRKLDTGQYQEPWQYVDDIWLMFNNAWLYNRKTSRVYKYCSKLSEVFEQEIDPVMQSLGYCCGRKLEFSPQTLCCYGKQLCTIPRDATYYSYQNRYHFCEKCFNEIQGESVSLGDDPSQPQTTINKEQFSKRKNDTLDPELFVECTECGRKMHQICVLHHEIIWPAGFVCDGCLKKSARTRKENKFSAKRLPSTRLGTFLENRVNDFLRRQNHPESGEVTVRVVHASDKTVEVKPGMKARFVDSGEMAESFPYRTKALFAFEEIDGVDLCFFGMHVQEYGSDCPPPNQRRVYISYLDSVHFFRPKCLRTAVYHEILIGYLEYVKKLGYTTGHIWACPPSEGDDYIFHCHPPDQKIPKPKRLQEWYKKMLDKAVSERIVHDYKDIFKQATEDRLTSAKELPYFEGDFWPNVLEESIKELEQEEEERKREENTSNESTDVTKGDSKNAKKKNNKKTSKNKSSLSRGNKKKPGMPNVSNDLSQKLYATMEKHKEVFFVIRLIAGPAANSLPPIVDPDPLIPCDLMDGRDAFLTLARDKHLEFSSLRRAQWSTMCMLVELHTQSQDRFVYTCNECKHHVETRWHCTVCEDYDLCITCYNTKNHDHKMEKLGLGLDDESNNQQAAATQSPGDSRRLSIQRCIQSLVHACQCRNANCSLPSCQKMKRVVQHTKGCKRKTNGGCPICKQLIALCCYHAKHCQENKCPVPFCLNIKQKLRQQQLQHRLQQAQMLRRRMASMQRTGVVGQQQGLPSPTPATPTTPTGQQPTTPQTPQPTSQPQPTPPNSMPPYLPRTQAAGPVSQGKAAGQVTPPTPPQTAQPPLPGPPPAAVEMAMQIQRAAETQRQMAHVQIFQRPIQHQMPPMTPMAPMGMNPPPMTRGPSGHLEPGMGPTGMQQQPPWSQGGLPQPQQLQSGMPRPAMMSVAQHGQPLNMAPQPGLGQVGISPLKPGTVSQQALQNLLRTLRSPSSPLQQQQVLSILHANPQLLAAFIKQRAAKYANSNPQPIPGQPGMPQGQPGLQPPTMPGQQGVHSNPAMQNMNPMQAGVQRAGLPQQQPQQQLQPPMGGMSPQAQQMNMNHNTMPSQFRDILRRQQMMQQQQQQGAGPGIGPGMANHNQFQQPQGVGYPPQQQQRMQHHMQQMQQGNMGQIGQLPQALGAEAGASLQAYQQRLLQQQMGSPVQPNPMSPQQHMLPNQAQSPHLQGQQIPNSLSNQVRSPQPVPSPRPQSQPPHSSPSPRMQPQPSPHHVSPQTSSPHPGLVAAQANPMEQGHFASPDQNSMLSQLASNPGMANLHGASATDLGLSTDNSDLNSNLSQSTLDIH

β-catenin/CBP interaction, sequence (Q92793 whole entry): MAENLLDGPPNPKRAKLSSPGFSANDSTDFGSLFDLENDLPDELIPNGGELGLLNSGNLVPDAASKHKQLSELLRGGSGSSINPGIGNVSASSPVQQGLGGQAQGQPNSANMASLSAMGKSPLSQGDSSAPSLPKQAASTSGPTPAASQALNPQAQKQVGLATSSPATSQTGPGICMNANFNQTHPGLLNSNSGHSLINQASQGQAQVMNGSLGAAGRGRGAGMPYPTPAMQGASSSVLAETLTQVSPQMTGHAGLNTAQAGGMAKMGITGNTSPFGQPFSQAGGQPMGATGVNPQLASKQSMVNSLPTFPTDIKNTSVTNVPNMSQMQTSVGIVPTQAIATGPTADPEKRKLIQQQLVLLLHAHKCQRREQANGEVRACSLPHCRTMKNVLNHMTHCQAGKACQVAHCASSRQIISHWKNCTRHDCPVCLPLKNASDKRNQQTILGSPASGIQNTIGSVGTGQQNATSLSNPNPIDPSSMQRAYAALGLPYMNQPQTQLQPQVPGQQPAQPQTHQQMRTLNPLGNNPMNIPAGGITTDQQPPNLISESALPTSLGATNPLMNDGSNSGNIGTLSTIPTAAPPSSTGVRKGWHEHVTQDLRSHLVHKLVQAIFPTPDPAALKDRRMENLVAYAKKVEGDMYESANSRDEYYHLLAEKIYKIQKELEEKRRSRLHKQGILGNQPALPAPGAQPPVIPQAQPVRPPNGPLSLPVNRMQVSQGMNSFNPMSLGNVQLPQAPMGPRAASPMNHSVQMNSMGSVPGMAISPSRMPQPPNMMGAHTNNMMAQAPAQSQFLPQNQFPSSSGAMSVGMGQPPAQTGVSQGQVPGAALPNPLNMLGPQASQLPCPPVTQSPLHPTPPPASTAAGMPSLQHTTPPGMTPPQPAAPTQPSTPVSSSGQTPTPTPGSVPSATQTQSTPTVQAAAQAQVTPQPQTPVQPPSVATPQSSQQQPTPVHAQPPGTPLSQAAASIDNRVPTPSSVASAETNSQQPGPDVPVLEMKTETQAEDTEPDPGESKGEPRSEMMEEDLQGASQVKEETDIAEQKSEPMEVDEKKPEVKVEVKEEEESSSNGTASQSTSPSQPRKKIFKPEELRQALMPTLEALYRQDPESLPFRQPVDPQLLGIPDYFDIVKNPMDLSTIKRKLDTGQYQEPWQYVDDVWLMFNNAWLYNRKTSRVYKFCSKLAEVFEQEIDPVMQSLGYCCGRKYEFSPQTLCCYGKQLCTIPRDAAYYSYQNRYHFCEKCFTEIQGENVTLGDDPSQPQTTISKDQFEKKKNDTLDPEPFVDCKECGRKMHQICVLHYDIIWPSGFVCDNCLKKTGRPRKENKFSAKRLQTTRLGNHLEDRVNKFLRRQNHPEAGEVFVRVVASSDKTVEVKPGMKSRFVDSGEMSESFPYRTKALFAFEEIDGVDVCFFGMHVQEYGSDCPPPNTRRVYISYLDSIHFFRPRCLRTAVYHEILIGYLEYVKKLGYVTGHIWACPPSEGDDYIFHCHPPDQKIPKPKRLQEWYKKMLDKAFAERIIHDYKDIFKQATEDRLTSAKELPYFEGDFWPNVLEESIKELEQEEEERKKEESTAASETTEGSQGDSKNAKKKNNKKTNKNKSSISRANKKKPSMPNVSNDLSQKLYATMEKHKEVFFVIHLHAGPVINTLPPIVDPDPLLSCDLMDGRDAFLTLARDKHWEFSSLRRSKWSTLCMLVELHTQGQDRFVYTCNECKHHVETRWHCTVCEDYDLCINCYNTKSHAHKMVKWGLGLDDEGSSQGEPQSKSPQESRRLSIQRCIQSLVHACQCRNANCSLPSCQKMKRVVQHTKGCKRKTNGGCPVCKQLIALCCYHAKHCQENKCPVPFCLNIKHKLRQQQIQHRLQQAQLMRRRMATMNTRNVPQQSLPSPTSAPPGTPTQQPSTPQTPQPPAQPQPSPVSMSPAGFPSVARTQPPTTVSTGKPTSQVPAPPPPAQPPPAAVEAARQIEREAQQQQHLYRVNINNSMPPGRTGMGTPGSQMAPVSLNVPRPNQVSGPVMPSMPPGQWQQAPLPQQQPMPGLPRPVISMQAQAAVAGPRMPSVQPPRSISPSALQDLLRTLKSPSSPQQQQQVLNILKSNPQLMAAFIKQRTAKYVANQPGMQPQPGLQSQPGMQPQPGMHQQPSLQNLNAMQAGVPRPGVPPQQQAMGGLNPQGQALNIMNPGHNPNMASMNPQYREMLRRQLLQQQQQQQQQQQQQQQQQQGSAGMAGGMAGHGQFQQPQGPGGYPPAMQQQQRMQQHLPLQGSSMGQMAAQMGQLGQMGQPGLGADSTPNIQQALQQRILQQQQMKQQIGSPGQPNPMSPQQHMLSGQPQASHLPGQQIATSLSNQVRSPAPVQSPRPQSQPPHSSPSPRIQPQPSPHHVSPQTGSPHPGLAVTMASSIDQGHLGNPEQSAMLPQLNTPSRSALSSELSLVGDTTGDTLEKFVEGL

## O=C1[C@H](Cc2ccc(O)cc2)N2C(=O)CCN(C(=O)NCc3ccccc3)[C@H]2CN1Cc1cccc2ccccc12 [Compound D]
Cultured tumor cells [1]
  number of cells in G0 (FACS): increase the number of cells in G0
Survivin promoter
  survivin expression (luciferase reporter): inhibit expression of surviving in SW480 cells
[2]
  blocking of β-catenin/CBP interaction: selectively blocks the β-catenin/CBP interaction
Surviving protein [3]
  survivin protein (immunofluorescence microscopy): little or no surviving protein was detected
Cultured tumor cells [4]
  cell death: promote cell death
Surviving promoter
  association of CBP, β-catenin, Tcf4 and acetylated histone with the survivin promoter (ChIP): decreases the association of all these proteins with the surviving promoter
[5]
  percentage of cells bearing neurites greater than twice the length of the cell body: substantially increased the percentage of cells bearing neurites
[5]; 10 days
  neurite outgrowth and differentiation: essentially normal neurite outgrowth and differentiation
SW480 cells [6]
  cell cycle distribution (FACS, PI): increased accumulation at G1/S-phase of the cell cycle
survivin
  Ratio (Treated/DMSO Control) Survivin: 0.30
[7]
  caspase-3/7 activity: specifically and significantly activated the caspase-3/7 pathway
HLAC
  Ratio (Treated/DMSO Control) HLAC: 1.01
SW480 cells [8]
  number of colonies formed in soft agar: dose dependent decrease in the number of colonies formed
Surviving protein [9]
  amount of survivin protein (Western blot): reduced the amount of the surviving protein
[10]
  TCF/β-catenin reporter gene transcription: decreased TCF/β-catenin reporter gene transcription
Caspase 3
  caspase 3 activity: activated the caspase 3 activity
GADPH
  Ratio (Treated/DMSO Control) GADPH: 0.98
[11]
  blocking of β-catenin/p300 interaction: not the β-catenin/p300 interaction
